Results on two compounds are retold here after patent US8269009B2, “Methods and compositions for treating liquid tumors” (Elan Pharmaceuticals, Inc., priority 2007, dated 2012).

Data set [1] is described as follows: Maximum tolerated dose of topotecan in the MOLT-4 model (Piedmont Research Center). The note with it: SCID, mouse, in vivo; MOLT-4 cell line model. As to the method: The dose level of 12 mg/kg topotecan was determined as maximum tolerated dose in the MOLT-4 cell line by Piedmont Research Center. Since maximal biologic effect can occur at a dose much lower than the MTD, we had included ½ the maximum tolerated (½MTD=6 mg/kg) (see Marx, G M et al., Journal of Clin One 2002; 20(6): 1446-1448).

Data set [2] concerns neovascularization of the cornea. Nature of the data set: Mouse corneal micropocket angiogenesis assay (VEGF pellet). The data set is classed as in vivo, C57BL/6 mice. On the procedure:
Fifty-five Charles River (Wilmington, N.C.) female C57BL/6 mice were available for the study. […] On Day 1 (Oct. 9, 2007) the Hydron pellets were implanted into corneal pocket cut in one eye of mice; pellets containing 200 ng/animal VEGF were implanted in Groups 2-6. Mice were anesthetized with 90 mg/kg pentobarbital, IP, immediately prior to implantation surgery; pellet implantation was performed according to Piedmont SOP which the test facility described as an adaptation of the method described by Kenyon et al (B M Kenyon, E E Voest, C C Chen, E Flynn, J Folkman, R J D'Amato, 1996, A model of angiogenesis in the mouse cornea, Investigative Opthalmology & Visual Science, Vol 37 No 8, 1625-1632). […]
Body weights were taken every day throughout the study. […] The vessel length of the longest blood vessel to have grown upward from the limbus was measured (VL) as was the circumference of vessel growth or clock hour (CH). The area of neovascularization was calculated using the formula: Area (mm^2)=πVL×CH×0.2. In addition to reporting the vessel length, clock hour, and calculated area of neovascularization, the percent neovascularization compared to the VEGF-treated negative control (Group 2) was reported. statistical significance by Kruskal-Wallis-Dunn with comparison to Group 2 and mean body weight nadir (the lowest group mean body weight, as a percent change from Day 1. […]

In general, MTD refers to the highest dose tested that stayed within the study's limit of toxicity. Low readings indicate a narrow tolerated range, high ones a wide tolerated range.

Compound `CC[C@@]1(O)C(=O)OCc2c1cc1n(c2=O)Cc2cc3c(CN(C)C)c(O)ccc3nc2-1` [topotecan] yielded an MTD in data set [1] of 12 mg/kg.
With “bevacizumab: bevacizumab (Avastin, Genentech), an anti-VEGF monoclonal antibody”, in data set [2] (10 mg/kg IP, qd x 6 from Day 2), the Percent neovascularization is reported as 0%. For the same compound, the “Changes in body weight vs untreated group” value in data set [2] (mouse, in vivo) was “no significant changes”.
